Experimental data published in publication PMC5974124, “Equilibrium Thermodynamics, Formation, and Dissociation Kinetics of Trivalent Iron and Gallium Complexes of Triazacyclononane-Triphosphinate (TRAP) Chelators: Unraveling the Foundations of Highly Selective Ga-68 Labeling” (Frontiers in Chemistry, 2018).
Like-named read-outs stand apart in the source and are kept apart here. Marks after values point to notes of the source that are not given here.

Experiments:
[1] = Protonation constants of ligands by pH-potentiometry; format: physicochemical; conditions: 0.15 M NaNO3, 25°C
Description: For determining the protonation constants of H6TRAP and H3NOTA ligands three parallel pH-potentiometric titration were made with 0.2 M NaOH in 0.002 M ligand solutions.
For pH measurements and titrations, a Metrohm 785 DMP Titrino titration workstation and a Metrohm-6.0233.100 combined electrode were used. Equilibrium measurements were carried out at a constant ionic strength (0.15 M NaNO3 or NaCl) in 6 mL samples at 25°C. Solutions were stirred and continuously purged with N2. Titrations were performed in a pH range of 1.7–12.0. KH-phthalate (pH = 4.005) and borax (pH = 9.177) buffers were used to calibrate the pH meter. For calculation of [H^+] from measured pH values, the method proposed by Irving et al. was used (Irving et al., [1967]). A 0.01 M HNO3 or HCl solution was titrated with the standardized NaOH solution in the presence of 0.15 M NaNO3 or NaCl. Differences between the measured (pHread) and calculated pH (–log[H^+]) values were used to obtain the equilibrium H^+ concentration from the pH values, measured in the titration experiments. For equilibrium calculations, the stoichiometric water ionic product (pKw) is also needed to calculate [H^+] values in basic conditions. The VNaOH–pHread data pairs of the HNO3–NaOH or HCl–NaOH titration obtained in the pH range 10.5–12.0 have been used to calculate the pKw value (pKw = 13.84). For calculation of the equilibrium constants, the program PSEQUAD (Zekany and Nagypal, [1985]) was used. The standard deviation (SD) of the equilibrium parameters calculated by the program PSEQUAD is defined by Equation (1)
Protonation equilibria of the TRAP^6−, NOTA^3− and Bha^− ligands were studied by pH-potentiometry. The protonation constants (log KiH ) of ligands defined by Equation (3) are listed in Table 1 (standard deviations are shown in parentheses). The charges of ligands and complexes will be indicated when it is necessary.
(3) KiH=[HiL]/[Hi−1L][H^+] i=0,1,2…6

[2] = Fe^III, 25°C, cited from earlier work
[3] = Stability and protonation constants of Fe^III complexes (pH-potentiometry, spectrophotometry, competition with Bha^−); format: physicochemical; conditions: 0.15 M NaNO3, 25°C
Description: Stability constant of [Fe(Bha)]^2+ complex was determined by spectrophotometry, studying the Fe^III-HBha systems at the absorption band of Fe^III-complex over the wavelength range of 400–800 nm in two sets of experiments. Individual samples were prepared in the first series in which the concentrations of Fe^III and HBha was constant 0.2 and 2.0 mM, while that of the H^+ was varied between […] (eight samples, Figure S1). The H^+ concentration in the samples was adjusted by addition of calculated amounts of 2.0 M HNO3. The ionic strength was constant in the samples with [H^+] < 0.15 M ([H^+]+[Na^+] = 0.15 M). Samples were kept at 25°C for a week. Absorbance values were determined at 11 wavelengths (400, 415, 430, 445, 460, 475, 490, 505, 520, 535, and 550 nm). In the second set, spectrophotometric titrations were done with samples containing HBha ligand in 2.0 mM concentration, whereas the concentration of Fe^III was varied between 0.1–0.3 mM (Figures S2–S4). The pH of the samples was adjusted using concentrated NaOH and HNO3 solutions in the pH range 1.7–11.0 (0.15 M NaNO3 and 25°C). For calculation of the equilibrium constants, the best fit of the absorbance–pH data was obtained by assuming formation of [Fe(Bha)]^2+, [Fe(Bha)2]^+, [Fe(Bha)3], and [Fe(Bha)2(OH)2]^− species (Figure S5). The molar absorptivity of [Fe(Bha)]^2+, [Fe(Bha)2]^+, [Fe(Bha)3] and [Fe(Bha)2(OH)2]^− species were also determined at the same 11 wavelengths in these experiments (Figure S6).
The stability constant of the [Fe(TRAP)]^3− complex has been determined by spectrophotometry, using competition reactions between HTRAP^5− and Bha^− for Fe^III at pH = 10.0. Concentration of [Fe(TRAP)]^3− was 0.2 mM, while that of HBha was varied between 0.0 and 1.5 mM (6 samples). The samples were kept at 25°C for 2 weeks. Absorbance values of the Fe^III-HTRAP^5−-Bha^− systems were determined at 11 wavelengths (400, 415, 430, 445, 460, 475, 490, 505, 520, 535, and 550 nm). The molar absorptivities of [Fe(TRAP)]^3− and [Fe(TRAP)OH]^4− in equilibrium solutions were determined by recording the absorption spectra of 0.1, 0.2, and 0.3 mM solution of [Fe(TRAP)]^3− in the pH range 6.0–12.0. The molar absorptivity of [Fe(Bha)2(OH)2]^− species was determined in the separate experiments. Absorbance and pH values were determined in the samples after equilibration (the time needed to reach the equilibria was determined by spectrophotometry). Spectrophotometric measurements were done using 1.0 cm cells with a Cary 1E spectrophotometer at 25°C. Protonation constants of the Fe^III complex formed with TRAP^6− were determined by direct pH-potentiometric titration at 1:1 metal to ligand ratios (both concentrations were 0.002 M). For calculation of the logKMHiL values, the mL base–pH data used were measured in the pH range 1.7 −12.0.
For pH measurements and titrations, a Metrohm 785 DMP Titrino titration workstation and a Metrohm-6.0233.100 combined electrode were used. Equilibrium measurements were carried out at a constant ionic strength (0.15 M NaNO3 or NaCl) in 6 mL samples at 25°C. Solutions were stirred and continuously purged with N2. Titrations were performed in a pH range of 1.7–12.0. […] For calculation of [H^+] from measured pH values, the method proposed by Irving et al. was used (Irving et al., [1967]). […] Differences between the measured (pHread) and calculated pH (–log[H^+]) values were used to obtain the equilibrium H^+ concentration from the pH values, measured in the titration experiments. […]

[4] = 25°C, cited from earlier work
[5] = cited from earlier work; for log β3OH hydrolysis constant: M(OH)3, ref Baes and Mesmer; for log β3OH hydrolysis constant / log β2OH hydrolysis constant / log β1OH hydrolysis constant: [1976]; for log β2OH hydrolysis constant: [M(OH)2]^+; for log β1OH hydrolysis constant: [M(OH)]^2+
[6] = 25°C, cited from earlier work; remark: listed apart in the source
[7] = parameters: method as in Brucher and Sherry, [1990]; conditions: 25°C, ref Brucher and Sherry, [1990]; cited from earlier work
[8] = parameters: method as in Notni et al., [2010]; Baranyai et al., [2015]; conditions: Zn^II, ref Notni et al., [2010]; Baranyai et al., [2015]; cited from earlier work
[9] = 0.2 M KCl, ref Farkas et al., [1998]
[10] = ref Baes and Mesmer, listed as Fe^3+
[11] = Ga^III, 0.1 M Me4NCl, ref Simecek et al., [2012]
[12] = 0.1 M KCl, ref Clarke and Martell, [1991]
[13] = 0.1 M Me4NCl, ref Drahos et al., [2011]
[14] = 0.15 M NaCl, ref Baranyai et al., [2015]

O=C(NO)c1ccccc1 [Bha^−, benzhydroxamic acid]
log K1H protonation constant [1]: 8.53(3)
logK ML2 [2, 9]: 10.12
logK ML3 [2, 9]: 7.60
logK ML stability constant [2, 9]: 11.08
logK ML2 [3]: 9.03(2)
logK ML3 [3]: 7.41(3)
logK ML stability constant [3]: 10.80(2)
logβFeL2(OH)2 [3]: 6.68(5)
log K1H protonation constant [4, 9]: 8.69

[Fe+3] [Fe^III]
log β3OH hydrolysis constant [5]: −12.0
log β3OH hydrolysis constant ([5]; listed as Fe^3+): –12.0
logβ4^OH hydrolysis constant ([5]; [Fe(OH)4]^-, ref Baes and Mesmer, 1976): –21.6
log β2OH hydrolysis constant ([5]; ref Baes and Mesmer): −5.67
log β2OH hydrolysis constant [5, 10]: –5.67
log β1OH hydrolysis constant ([5]; ref Baes and Mesmer): −2.19
log β1OH hydrolysis constant [5, 10]: –2.19

[Ga+3] [Ga^III]
log β3OH hydrolysis constant [5]: −8.2
log β2OH hydrolysis constant ([5]; ref Baes and Mesmer): −5.92
log β1OH hydrolysis constant ([5]; ref Baes and Mesmer): −2.97

O=C(O)CN1CCN(CC(=O)O)CCN(CC(=O)O)CC1 [NOTA^3−, 1,4,7-triazacyclononane-1,4,7-triacetic acid]
log K1H protonation constant [1]: 11.94(2)
log K2H protonation constant [1]: 5.71(3)
log K3H protonation constant [1]: 3.14(3)
log K4H protonation constant [1]: 1.60(2)
Σlog KiH total ligand basicity ([1]; for TRAP^6− log K3H, K4H, K5H not considered): 22.39
logK M(L)OH [6, 11]: 9.83
logK MHL protonation constant of complex [6, 11]: 0.9
logK ML stability constant [6, 11]: 29.60
logK ML stability constant [2, 12]: 28.3
logK M(L)OH [3]: 9.12(4)^e
log K1H protonation constant [4, 12]: 11.98
log K2H protonation constant [4, 12]: 5.65
log K3H protonation constant [4, 12]: 3.18
log K1H protonation constant [4, 13]: 13.17
log K2H protonation constant [4, 13]: 5.74
log K3H protonation constant [4, 13]: 3.22
log K4H protonation constant [4, 13]: 1.96
Σlog KiH total ligand basicity [4, 13]: 24.09
log K1H protonation constant [4, 14]: 12.16
log K2H protonation constant [4, 14]: 5.75
log K3H protonation constant [4, 14]: 3.18
log K4H protonation constant [4, 14]: 1.90
Σlog KiH total ligand basicity ([4]; 0.15 M NaCl, for TRAP^6− log K3H, K4H, K5H not considered, ref Baranyai et al., [2015]): 22.99

O=C([O-])CN1CCN(CC(=O)[O-])CCN(CC(=O)[O-])CC1.[Ce+3] [[Ce(NOTA)]]
kOH formation rate constant [7]: 6.3e+07 M⁻¹ s⁻¹

O=C([O-])CN1CCN(CC(=O)[O-])CCN(CC(=O)[O-])CC1.[Er+3] [[Er(NOTA)]]
kOH formation rate constant [7]: 5.5e+07 M⁻¹ s⁻¹

O=C([O-])CN(CCN(CC(=O)[O-])Cc1ccccc1[O-])Cc1ccccc1[O-].[Ga+3] [[Ga(HBED)]^−]
logKGa(HBED) stability constant ([6]; 0.1 M KCl, ref Ma et al., [1994]): 38.51

O=C([O-])CN1CCN(CC(=O)[O-])CCN(CC(=O)[O-])CC1.[Gd+3] [[Gd(NOTA)]]
kOH formation rate constant [7]: 7.1e+07 M⁻¹ s⁻¹

O=C([O-])CCP(=O)(O)CN1CCN(CP(=O)(O)CCC(=O)[O-])CCN(CP(=O)(O)CCC(=O)O)CC1.[Zn+2] [[Zn(TRAP)]^4−]
logKML stability constant [8]: 16.07
